One data set addresses T1, HER2 (Homo sapiens, UniProt P04626).
T1 construct: endogenous in cells; host or cells: SKBR3 human breast carcinoma cells
The data set is described as follows: Saturation radioligand binding assay in SKBR3 cells. To be noted: HER2 over expressing SKBR3 cells, 1 × 10^6 cells/well, 4–200 nM radiopeptide, 37 °C, 60 min, non-specific binding with unlabeled DOTA-A9, nonlinear regression, read-out: Binding affinity Kd. How it is done: The binding affinity of [^177Lu]DOTA-A9 and [^177Lu]DOTA-PEG4-A9 was determined by the saturation radioligand binding assay in HER2 over expressing SKBR3 cells. 1 × 10^6 cells/well were seeded in cell culture plates and incubated at 37 °C. Cells were treated with series of increasing concentration of the radiolabeled peptide (4–200 nM) and incubated at 37 °C for 60 min. For obtaining non-specific binding, cells were co-incubated with radiolabeled formulations along with unlabeled DOTA-A9 peptide. On completion of incubation, cells were washed with the ice-cold phosphate buffer saline (PBS). Cells with bound radioactivity were harvested with 1 N NaOH (1 mL) solution (at 37 °C for 3 min) and counted in a gamma counter. Kd value was calculated by the nonlinear regression algorithm (GraphPad Prism version 7.0). The Bmax value (nM) was converted to the number of HER2 receptors per cell.

The nature of the next data set: Human serum stability. In kind it is in vitro ADME. The note with it: human serum 500 μL, pH 7.4, 37 °C, 6 h, 25 µL (3.7 MBq) radiopeptide, acetonitrile precipitation, RP-HPLC radiochromatogram. The protocol: For serum stability studies blood was allowed to clot (1 h) followed by centrifugation (2300×g, 10 min). Measurements were performed by incubation of radiopeptides (25 µL, 3.7 MBq) with human serum (500 μL, pH 7.4) at 37 °C. After 6 h incubation acetonitrile (500 μL) was added to the sample for protein precipitation. Subsequently the sample was centrifuged, supernatant was collected and radiochemical purity was analyzed by RP-HPLC.

Data set [1] can be described thus: Biodistribution in SKBR3 tumor bearing SCID mice. In kind it is in vivo. The note with it: female, mouse, iv, 0.5 ug, total radioactivity, mean ± SD; for tissue to tissue ratio at 3 h: 3 h p.i.; for tissue to tissue ratio at 3 h / tissue to tissue ratio at 24 h / tissue to tissue ratio at 48 h: i.v. tail vein, 0.5 μg, 3.7 MBq; for tissue to tissue ratio at 24 h: 24 h p.i.; for tissue to tissue ratio at 48 h: 48 h p.i. How it is done: Biodistribution studies of peptide tracers, [^177Lu]DOTA-A9 and [^177Lu]DOTA-PEG4-A9 were carried out in female SCID mice bearing human breast carcinoma, SKBR3 tumor xenografts. Tumor bearing mice (n = 3) were intravenously injected with peptide tracers (0.5 μg, 150 μL, 3.7 MBq) into the tail vein. Animals were sacrificed and dissected at 3 h, 24 h and 48 h post injection (p.i.). The radioactivity associated with each tissue was counted in a NaI (Tl) flat geometry detector and expressed as percentage injected dose per gram of tissue [% ID/g, mean ± standard deviation, n = 3/radiotracer].
Statistical analysis using the […] two-tailed Student’s t-test was performed to compare uptake values in tumor and major organs between [^177Lu]DOTA-A9 and [^177Lu]DOTA-PEG4-A9 animal groups; values of p < 0.05 were considered statistically significant.

A further data set has as its system MDA-MB-435 tumors. The note with it: in vivo; cited from earlier work. The protocol:
Besides A9 peptide other HER2-targeting peptides have been explored and investigated. […] However, the tumor uptake reduced to 0.10 ± 0.02% ID/g at 24 h p.i. which is much lower than the values of presently studied radiopeptides. […] Tumor-to muscle ra ...

A further data set deals with U-87 MG tumors. To be noted: in vivo; cited from earlier work. The protocol:
Several Tc-99m-labeled peptides targeting HER2 receptors have also been studied. The high uptake of [^99mTc]HYNIC-(Ser)3-LTVPWY in U-87 MG tumors (2.08 ± 0.07% ID/g) at 1 h p.i. dropped to 0.04 ± 0.03% ID/g at 4 h p.i. […] Tumor-to-blood, tumor-to-muscle and tumor-to-kidney ratios reported were much lower for [^99mTc]CGGG-LTVSPWY and [^99mTc]CSSS-LTVSPWY compared to the current radiopeptides.

Data set [2] can be described thus: Water solubility (remarks). In kind it is physicochemical. The note with it: authors' remark on the non-pegylated peptide.
[3] abbreviates: tumor / blood, n = 3, read-out: Tumor-to-blood ratio.
[4] abbreviates: tumor / muscle, n = 3, read-out: Tumor-to-muscle ratio.

Where two headings read alike, the source gives them in different places. Residues, ends and D or L forms follow the SMILES beside them. *: point of attachment. DOTA = O=C(O)CN1CCN(CC(=O)O)CCN(CC(=O)*)CCN(CC(=O)O)CC1; PEG5 = NCCOCCOCCOCCOCCOCCC(=O)O

T1 sequence (P04626 23-1255): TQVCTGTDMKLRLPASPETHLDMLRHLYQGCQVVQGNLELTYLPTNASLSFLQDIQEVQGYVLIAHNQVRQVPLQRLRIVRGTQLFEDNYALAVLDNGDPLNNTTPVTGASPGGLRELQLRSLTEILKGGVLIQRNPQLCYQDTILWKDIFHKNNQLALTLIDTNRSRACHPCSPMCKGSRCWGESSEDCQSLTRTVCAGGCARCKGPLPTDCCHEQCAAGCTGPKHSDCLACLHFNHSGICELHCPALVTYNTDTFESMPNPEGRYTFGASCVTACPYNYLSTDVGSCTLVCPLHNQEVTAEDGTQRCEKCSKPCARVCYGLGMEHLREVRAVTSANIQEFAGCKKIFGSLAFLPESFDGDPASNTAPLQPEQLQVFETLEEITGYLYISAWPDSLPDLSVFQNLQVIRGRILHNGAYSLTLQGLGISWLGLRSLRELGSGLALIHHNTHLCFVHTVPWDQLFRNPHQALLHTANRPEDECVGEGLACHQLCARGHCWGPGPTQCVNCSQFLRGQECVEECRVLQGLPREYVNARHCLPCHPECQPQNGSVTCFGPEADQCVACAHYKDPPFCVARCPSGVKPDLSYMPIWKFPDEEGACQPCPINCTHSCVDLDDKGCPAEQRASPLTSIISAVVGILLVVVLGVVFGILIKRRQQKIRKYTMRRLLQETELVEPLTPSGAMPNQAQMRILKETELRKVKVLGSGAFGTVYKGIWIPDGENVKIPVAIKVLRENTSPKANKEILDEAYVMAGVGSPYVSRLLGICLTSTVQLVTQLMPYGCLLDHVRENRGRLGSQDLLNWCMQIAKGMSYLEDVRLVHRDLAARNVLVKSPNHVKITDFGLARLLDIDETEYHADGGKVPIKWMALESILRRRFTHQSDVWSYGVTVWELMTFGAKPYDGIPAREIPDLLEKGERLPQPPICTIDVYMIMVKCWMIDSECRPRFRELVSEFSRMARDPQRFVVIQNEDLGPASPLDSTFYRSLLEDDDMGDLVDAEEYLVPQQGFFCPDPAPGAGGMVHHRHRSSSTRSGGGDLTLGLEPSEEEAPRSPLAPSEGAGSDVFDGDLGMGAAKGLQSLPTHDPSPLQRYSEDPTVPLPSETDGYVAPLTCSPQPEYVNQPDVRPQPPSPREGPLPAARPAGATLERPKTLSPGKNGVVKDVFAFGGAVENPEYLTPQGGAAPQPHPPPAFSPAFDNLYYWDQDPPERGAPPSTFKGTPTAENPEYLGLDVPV

For orientation: Kd means the free concentration of one partner at which half of the binding sites on the other are occupied at equilibrium, for simple one-to-one binding. For the compound `CC(C)[C@H](NC(=O)[C@H](C)NC(=O)[C@@H](NC(=O)[C@H](CC(N)=O)NC(=O)[C@@H](NC(=O)[C@H](CC(=O)O)NC(=O)[C@H](CCC(N)=O)NC(=O)CN1CCN(CC(=O)O)CCN(CC(=O)O)CCN(CC(=O)O)CC1)C(C)C)[C@@H](C)O)C(=O)N[C@@H](C)C(=O)N[C@@H](Cc1c[nH]c2ccccc12)C(N)=O` [[^177Lu]DOTA-A9, metal not drawn] ({DOTA}-QDVNTAVAW-NH2), the Kd at HER2 stood at 0.0484 ± 0.00137 µM. In addition, the “Degradation on incubation with human serum (radio-HPLC)” value in the data set “Human serum stability” is given as “no degradation”. In data set [1] (setting [3]), the tissue to tissue ratio at 3 h was found to be 3.4 ± 0.49 and the tissue to tissue ratio at 24 h came to 7.42 ± 1.11. In addition, in data set [1] (setting [4]), the tissue to tissue ratio at 3 h amounted to 8.42 ± 0.04, the tissue to tissue ratio at 24 h came out at 8.09 ± 2.21 and the tissue to tissue ratio at 48 h came out at 10 ± 1.57.
As for “DOTA(GSG)-KCCYSL [[^111In]DOTA(GSG)-KCCYSL, In-111 labeled HER2-targeting KCCYSL peptide]”, in the data set with MDA-MB-435 tumors, the Maximum tumor uptake is 2.12 ± 0.32 % ID/g, the Tumor-to-blood ratio was 10:1 and the Tumor-to-muscle ratio was 0.5:1.
The term tissue uptake denotes the percentage of the injected dose found per gram of tissue. `CC(C)[C@H](NC(=O)[C@H](C)NC(=O)[C@@H](NC(=O)[C@H](CC(N)=O)NC(=O)[C@@H](NC(=O)[C@H](CC(=O)O)NC(=O)[C@H](CCC(N)=O)NC(=O)CCOCCOCCOCCOCCOCCNC(=O)CN1CCN(CC(=O)O)CCN(CC(=O)O)CCN(CC(=O)O)CC1)C(C)C)[C@@H](C)O)C(=O)N[C@@H](C)C(=O)N[C@@H](Cc1c[nH]c2ccccc12)C(N)=O` [[^177Lu]DOTA-PEG4-A9, metal not drawn] ({DOTA-PEG5}-QDVNTAVAW-NH2) displayed an intact radiopeptide after 6 h in human serum of more than 95%. Also, the dissociation constant (Kd) on HER2 came to 0.0557 ± 0.0123 µM. Moreover, the “Degradation on incubation with human serum (radio-HPLC)” value in the data set “Human serum stability” is recorded as “no change in radiochromatogram”. For the same compound, the tissue uptake at 3 h in data set [1] (SKBR3 tumor, maximum observed at 3 h p.i., n = 3) is 2.04 ± 0.22 %ID/g. Moreover, in data set [1] (setting [3]), the tissue to tissue ratio at 3 h stood at 3.85 ± 0.02, the tissue to tissue ratio at 24 h is 8.87 ± 1.51 and the tissue to tissue ratio at 48 h is 15 ± 1.42. In data set [1] (setting [4]), the tissue to tissue ratio at 3 h was 15.7 ± 2.06, the tissue to tissue ratio at 24 h was 13.3 ± 0.03 and the tissue to tissue ratio at 48 h was found to be 30 ± 2.83.
Turning to “HYNIC-(Ser)3-LTVPWY [[^99mTc]HYNIC-(Ser)3-LTVPWY, Tc-99m-labeled peptide targeting HER2 receptors]”, in the data set on U-87 MG tumors, the Tumor-to-blood ratio is on record as 3.39, the Tumor-to-kidney ratio is given as 0.24 and the Tumor-to-muscle ratio is given as 3.98.
Turning to `CC(C)[C@H](NC(=O)[C@H](C)NC(=O)[C@@H](NC(=O)[C@H](CC(N)=O)NC(=O)[C@@H](NC(=O)[C@H](CC(=O)O)NC(=O)[C@H](CCC(N)=O)NC(=O)CN1CCN(CC(=O)O)CCN(CC(=O)O)CCN(CC(=O)O)CC1)C(C)C)[C@@H](C)O)C(=O)N[C@@H](C)C(=O)N[C@@H](Cc1c[nH]c2ccccc12)C(N)=O` [DOTA-A9] ({DOTA}-QDVNTAVAW-NH2), in data set [2], the Solubility result is recorded as “no solubility issues”.
As for `CC(C)[C@H](NC(=O)[C@H](C)NC(=O)[C@@H](NC(=O)[C@H](CC(N)=O)NC(=O)[C@@H](NC(=O)[C@H](CC(=O)O)NC(=O)[C@H](CCC(N)=O)NC(=O)CN1CCN(CC(=O)O)CCN(CC(=O)O)CCN(CC(=O)O)CC1)C(C)C)[C@@H](C)O)C(=O)N[C@@H](C)C(=O)N[C@@H](Cc1c[nH]c2ccccc12)C(N)=O` ({DOTA}-QDVNTAVAW-NH2), the intact radiopeptide after 6 h in human serum is more than 95%.

(Values after paper PMC9489682, “Synthesis and comparative evaluation of ^177Lu-labeled PEG and non-PEG variant peptides as HER2-targeting probes” (Scientific Reports, 2022).)
